Experimental data as given in patent US6645949B1, “Toxicity of boron compounds to certain arthropods” (University of Florida, priority 2000, dated 2003).
“And” between values parts separate entries of the source, which are not always exact repeats. Equal entries are not always repeated.

Test system: Diamond Back Moth (DBM; Plutella xylostella)
Experiment: Control of diamond back moth and inhibition of egg deposition, cage test with sugar pads
Format: in vivo
Conditions: 4% in 10% sucrose
Description: On day one, six cages (24″ cube) were set up with five virgin DBM females and five virgin DBM males, one cabbage seedling, and one sugar pad (10% sucrose) in each cage. The sugar solution in three cages also contained 4% sodium tetraborate (4 g+96 ml, w:v water). The virgin adult DBM were obtained by isolating colony pupae individually in vials two days prior. The adults emerged one day prior to day one and on day one. They were provided a 10% sugar solution with or without sodium tetraborate, as soon as they emerged, by placing the vials with cloth bottoms on cotton pads.
The cages were placed in environmental rooms where the temperature was 25-26° C. and the day length was 14 hours.
Sugar pads were a single layer of rolled cotton approximately 8 cm square. Each pad was soaked in the appropriate solution, placed in the bottom of a petri dish (95×15 mm), and the excess water was pressed out. Each pad held about 30 ml of solution.
The cabbage seedlings were in Descn. No. 12 plastic pots. The surface of the soil was covered with a thin layer of Plaster of Paris.
On each of days two, three, four, five, and six, the sugar pads and plants were changed (once) between 1:00 p.m. and 5:00 p.m.

[1] = Day 7, cages 1-3, one cage per cell
[2] = Total of Days 2-7, cages 1-3, one cage per cell
[3] = Total of Days 2-7 and of 3 cages
[4] = relative to sugar control, Days 2-7

Structure (SMILES): O=BOB(O)OB(O)OB=O [Sodium tetraborate, sodium tetraborate]
- Percent Hatch, Average (Average of the 3 cages, Days 2-7): 66.4%
- Number of Eggs, Average (Average per cage over Days 2-7): 354.7
- Number of Larvae, Average (Average per cage over Days 2-7): 235.3
- Number of Dead Females (Day 2, Total of 3 cages): 0
- Number of Dead Males (Day 2, Total of 3 cages): 0
- Number of Eggs (Day 2, Total of 3 cages): 202
- Number of Larvae (Day 2, Total of 3 cages): 99
- Percent Hatch (Day 2, Total): 44.8%
- Number of Dead Females (Day 2, cages 1-3, five females per cage): 0
- Number of Dead Males (Day 2, cages 1-3, five males per cage): 0
- Percent Hatch (Day 2, cages 1-3, one cage per cell): 40.9% and 58.2% and 35.4%
- Number of Dead Females (Day 3, Total of 3 cages): 1
- Number of Dead Males (Day 3, Total of 3 cages): 0
- Number of Eggs (Day 3, Total of 3 cages): 499
- Number of Larvae (Day 3, Total of 3 cages): 388
- Percent Hatch (Day 3, Total): 79.9%
- Number of Dead Males (Day 3, cages 1-3, five males per cage): 0
- Percent Hatch (Day 3, cages 1-3, one cage per cell): 73.7% and 74.2% and 91.7%
- Number of Dead Females (Day 4, Total of 3 cages): 1
- Number of Dead Males (Day 4, Total of 3 cages): 0
- Number of Eggs (Day 4, Total of 3 cages): 185
- Number of Larvae (Day 4, Total of 3 cages): 113
- Percent Hatch (Day 4, Total): 57.0%
- Number of Dead Males (Day 4, cages 1-3, five males per cage): 0
- Percent Hatch (Day 4, cages 1-3, one cage per cell): 47.5% and 52.2% and 71.3%
- Number of Dead Females (Day 5, Total of 3 cages): 1
- Number of Dead Males (Day 5, Total of 3 cages): 2
- Number of Eggs (Day 5, Total of 3 cages): 119
- Number of Larvae (Day 5, Total of 3 cages): 70
- Percent Hatch (Day 5, Total): 54.3%
- Number of Dead Females (Day 6, Total of 3 cages): 3
- Number of Dead Males (Day 6, Total of 3 cages): 4
- Number of Eggs (Day 6, Total of 3 cages): 58
- Number of Larvae (Day 6, Total of 3 cages): 36
- Percent Hatch (Day 6, Total): 63.3%
- Number of Dead Females (Day 6, cages 1-3, five females per cage): 1
- Number of Dead Females (Day 7, Total of 3 cages): 6
- Number of Dead Males (Day 7, Total of 3 cages): 4
- Number of Eggs (Day 7, Total of 3 cages): 1
- Number of Larvae (Day 7, Total of 3 cages): 0
- Number of Live Females (Day 7, Total of 3 cages): 2
- Number of Live Males (Day 7, Total of 3 cages): 2
- Percent Hatch (Day 7, Total): 0.0%
- Number of Dead Males (Day 7, cages 1-3, five males per cage): 2 and 1
- Number of Larvae [1]: 0
- Percent Hatch [1]: 0.0%
- Percent Hatch, Total (Days 2-7 together, cages 1-3, one cage per cell): 60.9% and 65.5% and 72.9%
- Number of Eggs, Total [2]: 419 and 261 and 384
- Number of Larvae, Total [2]: 255 and 171 and 280
- Number of Eggs, Total [3]: 1064
- Number of Larvae, Total [3]: 706
- Number of Eggs, % of sugar [4]: 57.1%
- Number of Larvae, % of sugar [4]: 64.2%
